How the values were obtained:
FLT3 D835Y = biological target: T1, FLT3 D835Y (Homo sapiens, UniProt P36888, D835Y); assay: DiscoverX KINOMEscan competition binding, FLT3 D835Y; details: no ATP
T1 construct: purchased DiscoverX (KINOMEscan); host or cells: E. coli (T7 phage) or HEK-293
T1 sequence (P36888 27-993 D835Y): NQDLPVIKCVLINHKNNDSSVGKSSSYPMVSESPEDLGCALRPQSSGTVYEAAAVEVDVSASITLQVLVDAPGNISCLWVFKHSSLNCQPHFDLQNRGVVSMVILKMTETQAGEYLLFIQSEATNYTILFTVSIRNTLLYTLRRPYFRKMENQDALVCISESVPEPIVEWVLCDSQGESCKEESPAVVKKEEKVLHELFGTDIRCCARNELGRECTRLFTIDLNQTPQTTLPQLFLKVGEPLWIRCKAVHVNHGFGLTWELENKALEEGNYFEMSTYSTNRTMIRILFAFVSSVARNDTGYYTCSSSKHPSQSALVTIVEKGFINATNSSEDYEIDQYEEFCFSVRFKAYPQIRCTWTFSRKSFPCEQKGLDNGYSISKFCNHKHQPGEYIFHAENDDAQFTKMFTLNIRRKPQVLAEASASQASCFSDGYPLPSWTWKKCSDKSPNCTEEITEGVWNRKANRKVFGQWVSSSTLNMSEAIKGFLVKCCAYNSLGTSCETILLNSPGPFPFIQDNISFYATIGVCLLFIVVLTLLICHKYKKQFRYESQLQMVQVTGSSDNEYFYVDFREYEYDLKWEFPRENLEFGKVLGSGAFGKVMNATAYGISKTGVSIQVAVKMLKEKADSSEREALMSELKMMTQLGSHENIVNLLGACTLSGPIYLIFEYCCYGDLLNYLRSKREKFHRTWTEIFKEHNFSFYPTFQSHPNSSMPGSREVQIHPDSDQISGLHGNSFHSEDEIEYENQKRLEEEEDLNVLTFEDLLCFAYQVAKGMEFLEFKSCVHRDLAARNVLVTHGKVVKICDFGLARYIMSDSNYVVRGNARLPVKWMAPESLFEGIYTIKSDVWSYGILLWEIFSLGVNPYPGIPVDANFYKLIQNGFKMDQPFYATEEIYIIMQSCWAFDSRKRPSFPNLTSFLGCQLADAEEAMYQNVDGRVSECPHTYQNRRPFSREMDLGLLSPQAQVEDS
Description: (§1) Kinase binding data were obtained for various exemplary compounds prepared according to Examples 2-15 using the DiscoverX KINOMEscan® active site-directed competition binding site-directed assay protocol described below. […] As a result, the data report thermodynamic interaction affinities (Kd values), rather than IC50 values that are dependent on ATP concentrations. The assay uses a DNA-tagged version of the protein kinase, and an immobilized ligand bound to a solid support. Compounds that directly or indirectly prevent kinase binding to the immobilized ligand reduce the amount of kinase captured on the solid support, which is detected using an ultra-sensitive qPCR method. Affinity constants reported from the assay have been reported to be independent of the immobilized ligand used that is coupled to the solid support (See supplemental information in Fabian, M. A. et. al., (2005) Nat. […] Wodicka, L. […] Biol. 17, 1241-1249.) Kinase-tagged T7 phage strains were prepared in an E. coli host derived from the BL21 strain. E. coli were grown to log-phase and infected with T7 phage and incubated with shaking at 32° C. until lysis. […] Kds were determined using an 11-point 3-fold compound dilution series with three DMSO control points. […] The kinase concentration in the eluates was measured by qPCR. Binding constants (Kds) were calculated with a standard dose-response curve using the Hill equation. […]

FLT3 ITD, F691L = biological target: T2, FLT3 ITD, F691L (Homo sapiens, UniProt P36888, F691L, form not given); assay: DiscoverX KINOMEscan competition binding, FLT3 ITD, F691L; details: no ATP
T2 construct: fused on or other part: DNA tag for qPCR read-out (T7 phage fusion, or DNA-tagged kinase made in HEK-293 cells)
T2 sequence (P36888 1-993 F691L): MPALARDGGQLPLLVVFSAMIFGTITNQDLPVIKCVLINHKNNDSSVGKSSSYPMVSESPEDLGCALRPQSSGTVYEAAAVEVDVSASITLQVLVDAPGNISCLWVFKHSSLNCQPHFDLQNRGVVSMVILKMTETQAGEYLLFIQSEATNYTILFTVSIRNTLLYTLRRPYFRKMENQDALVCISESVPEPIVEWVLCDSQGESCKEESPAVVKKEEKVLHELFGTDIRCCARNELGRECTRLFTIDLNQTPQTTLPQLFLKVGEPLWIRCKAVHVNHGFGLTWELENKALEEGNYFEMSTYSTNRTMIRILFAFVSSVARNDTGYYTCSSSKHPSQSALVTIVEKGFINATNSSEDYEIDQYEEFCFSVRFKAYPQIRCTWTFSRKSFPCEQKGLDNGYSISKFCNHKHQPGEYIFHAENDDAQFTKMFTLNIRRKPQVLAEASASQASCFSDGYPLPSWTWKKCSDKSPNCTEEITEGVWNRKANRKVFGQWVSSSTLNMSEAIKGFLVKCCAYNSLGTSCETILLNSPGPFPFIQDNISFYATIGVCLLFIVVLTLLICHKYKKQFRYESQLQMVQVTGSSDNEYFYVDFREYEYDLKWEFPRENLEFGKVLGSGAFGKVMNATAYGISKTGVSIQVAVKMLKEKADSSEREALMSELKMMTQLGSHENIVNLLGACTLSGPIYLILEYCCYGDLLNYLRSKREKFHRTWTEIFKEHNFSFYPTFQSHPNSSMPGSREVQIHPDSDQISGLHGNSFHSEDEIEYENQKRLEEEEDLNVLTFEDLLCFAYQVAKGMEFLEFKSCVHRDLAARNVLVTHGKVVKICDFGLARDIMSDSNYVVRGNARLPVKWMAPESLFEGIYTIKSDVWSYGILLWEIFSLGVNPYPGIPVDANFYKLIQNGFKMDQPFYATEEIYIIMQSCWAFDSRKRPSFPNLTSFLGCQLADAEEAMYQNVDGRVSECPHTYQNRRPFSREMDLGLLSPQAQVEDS
Description: as §1

COc1cc2ncc(-c3nc(N[C@H]4CNCC[C@@H]4F)c(F)cc3F)n2nc1C1CCC1 [Compound 15a, 6-(6-cyclobutyl-7-methoxyimidazo[1,2-b]pyridazin-3-yl)-3,5-difluoro-N-((3S,4S)-4-fluoropiperidin-3-yl)pyridin-2-amine]
Kd (FLT3 D835Y): < 170 pM | Kd (FLT3 ITD, F691L): < 170 pM

Reference: patent US20250368648A1, “MULTI-CYCLIC IRAK AND FLT3 INHIBITING COMPOUNDS AND USES THEREOF” (CHILDREN'S HOSPITAL MEDICAL CENTER, priority 2022, published 2025)
